These results are taken from patent US5168101A, “Sulfonamide derivatives” (Ono Pharmaceutical Co., Ltd., priority 1987, dated 1992).

In data set [1] the test system is platelet aggregation induced by STA2 in human blood. Nature of the data set: Inhibitory effect on platelet aggregation induced by STA2 in human blood. It is filed as cell-based. The note with it: platelet aggregation induced by STA2 in human blood (platelet rich plasma, method of Born); read-out: Inhibitory effects on platelet aggregation (IC50). From the text: For example, in a standard laboratory test, the effects were possible to be confirmed by (i) inhibitory effect on platelet aggregation induced by STA2 (9α, 11α-epithio-15α-hydroxy-11α-carbathromba-5Z,13E-dienoic acid) in human blood, (ii) inhibitory effect on contraction of smooth muscle induced by STA2 in guinea pigs or (iii) inhibitory effect on increasing of blood pressure induced by STA2 in guinea pigs (intravenously and orally).
(i) Inhibitory effect on platelet aggregation induced by STA2 in human blood: Whole blood of healthy human adult was collected with citric acid, and the mixture (20 ml) was centrifuged (180×g) for 10 min. The supernatant obtained was diluted with sufficient platelet poor plasma to obtain plasma which contains 300,000 platelet cells power μl. A solution of tested compound in ethanol (1 μl) was added to the obtained plasma (250 μl), and then a solution of STA2 is ethanol was added to the mixtures. The measurement was carried out followed by the method of Born and then IC50 was calculated.

Data set [2] concerns increasing of blood pressure induced by STA2. Nature of the data set: Inhibitory effect on increasing of blood pressure induced by STA2 in guinea pigs. It is filed as in vivo. The note with it: 100 μg/kg. Here is the method:
(iii) Inhibitory effect on increasing of blood pressure induced by STA2 in guinea pigs: A 7% sodium bicarbonate buffer solution (pH 7.6-8.6) of each tested compounds was administered intravenously via carotid vein or orally to a urethane-anaesthetized male guinea pig weighing 250~350 g, at a rate of 10-1000 μg/kg animal body weight. And then guinea pigs were administered intravenously a solution of STA2 in phosphate buffer (pH 7.4). change of the blood pressure was measured at carotid artery and then inhibition ratio (%) was calculated.
(§1) For example, in a standard laboratory test, the effects were possible to be confirmed by (i) inhibitory effect on increasing of blood pressure induced by STA2 in guinea pigs (antagonistic effect) and (ii) stimulatory effect on increasing of blood pressure in guinea pigs (agnostic effect).
(§2) Inhibitory effect on increasing of blood pressure induced by TXA2 in guinea pigs and stimulatory effect on increasing of blood pressure in guinea pigs: A 7% sodium bicarbonate buffer solution (pH 7.6~8.6) of each tested compounds was administered intravenously via carotid vein or orally to a urethane-anaesthetized male guinea pig weighing 250~350 g, at a rate of 100 μg/kg animal body weight. Increasing of blood pressure was measured in guinea pigs administered test compounds intravenously. On the other hand, to guinea pigs administered test compounds orally, then a solution of STA2 in phosphate buffer (pH 7.4) was administered. Change of the blood pressure was measured at carotid artery and then inhibition ratio (%) was calculated.

For data set [3], the system named is increasing of blood pressure in guinea pigs. The data set can be described thus: Stimulatory effect on increasing of blood pressure in guinea pigs (agonistic effect on TXA2). The note with it: 100 μg/kg, i.v. (n = 2~4). It is filed as in vivo.
Source text: as §1, §2

Some results are limits rather than exact numbers.

One may read the IC50 as the concentration at which inhibition is half-maximal. As to `Cc1ccc(S(=O)(=O)N[C@@H]2C[C@@H]3C[C@H](C/C=C\CCCC(=O)O)[C@H]2C3)cc1` (relative stereo) [4 (a)], in data set [1], the half-maximal inhibitory concentration (IC50) came out at 1780 nM.

With `Cc1ccc(S(=O)(=O)N[C@H]2[C@H]3CC[C@H](C3)[C@@H]2C/C=C\CCCC(=O)NCC(=O)O)cc1` [Example 7, Amide of (5Z)-7-[(1R, 2S, 3S, 4S)-3-tosylaminobicyclo [2.2.1]heptan-2-yl]hept-5-enoic acid and glycine], the “(i) Duration of more than 50% inhibit increasing of blood pressure induced STA2 pig” value in data set [2] is listed as more than 270 min. Also, the “(ii) Effect of increasing of blood pressure in guinea pig” value in data set [3] was 9 mmHg.

On to `O=C(O)CCC/C=C\[C@@H]1CC[C@H](NS(=O)(=O)c2ccc(Br)cc2)C1` [1 (i), (5Z)-6-[(1R, 3S)-3-(4-bromobenzenesulfonylamino)cyclopentyl]hex-5-enoic acid], for which, in data set [1], the IC50 amounted to 30 nM.

For the compound `O=C(O)CCC/C=C\[C@H]1[C@@H]2CC[C@@H](C2)[C@@H]1CCNS(=O)(=O)c1ccc(Br)cc1` [1 (u), (5Z)-6-[(1R, 2R, 3S, 4S)-3-[2-[N-(4-bromobenzenesulfonyl)amino]ethyl]bicyclo[2.2.1]heptan-2-yl]hex-5-enoic acid], in data set [1], the IC50 worked out at 1000 nM.

In the case of `Cc1ccc(S(=O)(=O)N[C@H]2[C@H]3CC[C@H](C3)[C@@H]2C/C=C\CCCC(=O)N[C@@H](CCCCN)C(=O)O)cc1` [Example 8, Amide of (5Z)-7-[(1R, 2S, 3S, 4S)-3-tosylaminobicyclo [2.2.1]heptan-2-yl]hept-5-enoic acid and lysine], the “(i) Duration of more than 50% inhibit increasing of blood pressure induced STA2 pig” value in data set [2] turned out to be 305 min. Also, in data set [3], the “(ii) Effect of increasing of blood pressure in guinea pig” value amounted to 7 mmHg.

With `Cc1ccc(S(=O)(=O)N[C@H]2[C@H]3CC[C@H](C3)[C@@H]2C/C=C\CCCC(=O)O)cc1` [The compared compound, reference compound], the “(i) Duration of more than 50% inhibit increasing of blood pressure induced STA2 pig” value in data set [2] was determined as 205 min. The “(ii) Effect of increasing of blood pressure in guinea pig” value in data set [3] is reported as 36 mmHg.

As for `Cc1ccc(S(=O)(=O)N[C@H]2[C@H]3CC[C@H](C3)[C@@H]2C/C=C\CCCC(N)=O)cc1`, the “(i) Duration of more than 50% inhibit increasing of blood pressure induced STA2 pig” value in data set [2] is listed as more than 340 min. Besides, in data set [3], the “(ii) Effect of increasing of blood pressure in guinea pig” value is listed as 9 mmHg.

Turning to `O=C(O)CCC/C=C\[C@@H]1[C@H]2CC[C@H](C2)[C@H]1CNS(=O)(=O)c1ccc(Br)cc1` [1 (y), (5Z)-6-[(1S, 2S, 3R, 4R)-3-[N-(4-bromobenzenesulfonyl)aminomethyl]bicyclo[2.2.1]heptan-2-yl]hex-5-enoic acid], the IC50 in data set [1] came out at 10 nM.

Turning to `Cc1ccc(S(=O)(=O)NCC2C3CCC(C3)C2C=CCCCC(=O)O)cc1` [1 (s), (5Z)-6-[(1S, *2S*, 3S*, 4R*)-3-[N-tosylaminomethyl]bicyclo[2.2.1]heptan-2-yl]hex-5-enoic acid], the IC50 in data set [1] was 520 nM.

For `Cc1ccc(S(=O)(=O)NC[C@H]2CCC[C@@H]2/C=C\CCCC(=O)O)cc1` (relative stereo) [1 (w), (5Z)-6-[(1R, 2S*)-2-[N-tosylaminomethyl]cyclopentan-1-yl]hex-5-enoic acid], in data set [1], the half-maximal inhibitory concentration (IC50) came to 680 nM.

On to `Cc1ccc(S(=O)(=O)N[C@H]2[C@H]3CC[C@H](C3)[C@@H]2C/C=C\CCCC(=O)NC(C)C(=O)O)cc1` (stereo partly drawn) [7 (b), amide of (5Z)-7-[(1R, 2S, 3S, 4S)-3-tosylaminobicyclo[2.2.1]heptan-2-yl]hept-5-enoic acidand alanine], for which the “(i) Duration of more than 50% inhibit increasing of blood pressure induced STA2 pig” value in data set [2] is reported as more than 290 min. Moreover, the “(ii) Effect of increasing of blood pressure in guinea pig” value in data set [3] is 11 mmHg.

Take `O=C(O)CCC/C=C\[C@H]1CCCC[C@@H]1CNS(=O)(=O)c1ccc(Br)cc1` (relative stereo) [1 (t), (5Z)-6-[(1R*, 2S*,)-2-[N-(4-bromobenzenesulfonyl)aminometh-yl]cyclohexan-1-yl]hex-5-enoicacid]: the IC50 in data set [1] worked out at 520 nM.

`O=C(O)CCC/C=C\[C@@H]1CCC[C@H](NS(=O)(=O)c2ccc(Br)cc2)C1` (relative stereo) [1 (m), (5Z)-6-[(1R*, 3S*)-3-(4-bromobenzenesulfonylamino)cyclohexyl]hex-5-enoic acid]: the IC50 in data set [1] was found to be 170 nM.

Regarding `O=C(O)CCC/C=C\[C@H]1[C@@H]2CC[C@@H](C2)[C@@H]1CNS(=O)(=O)c1ccccc1` [1 (q), (5Z)-6-[(1R, 2R, 3S, 4S)-3-(N-benzenesulfonylaminomethyl)bicyclo[2.2.1]heptan-2-yl]hex-5-enoic acid], in data set [1], the IC50 worked out at 1670 nM.

In the case of `O=C(O)CCC/C=C\[C@H]1C[C@@H]2C[C@H]1[C@@H](NS(=O)(=O)c1ccc(Br)cc1)C2` (relative stereo) [1 (c), (5Z)-6-[(1R*, 2R*, 4R*, 6S*)-6-(4-bromobenzenesulfonylamino)bicyclo[2.2.1]heptan-2-yl]hex-5-enoic acid], the half-inhibitory concentration (IC50) in data set [1] turned out to be 1000 nM.

`O=C(O)CCC/C=C\[C@H]1[C@@H]2CC[C@@H](C2)[C@@H]1CNS(=O)(=O)c1ccc(Br)cc1` [1 (r), (5Z)-6[(1R, 2R, 3S, 4S)-3-[N-(4-bromobenzenesulfonyl)aminomethyl]bicyclo[2.2.1]heptan-2-yl]hex-5-enoic acid]: in data set [1], the IC50 stood at 280 nM.

Regarding `Cc1ccc(S(=O)(=O)NC[C@H]2[C@H]3CC[C@H](C3)[C@@H]2/C=C\CCCC(=O)O)cc1` (relative stereo) [1 (p), (5Z)-6-[(1R*, 2R*, 3S*, 4S*)-3-[N-tosylaminomethyl]bicyclo[2.2.1]heptan-2-yl]hex-5-enoic acid], in data set [1], the half-inhibitory concentration (IC50) was found to be 90 nM.

For the compound `CCCCCCCCOC(=O)CCC/C=C\[C@@H]1[C@H]2CC[C@H](C2)[C@H]1CNS(=O)(=O)c1ccc(Br)cc1` [5 (g), octyl(5Z)-6-[(1S, 2S, 3R, 4R)-3-[N-(4-bromobenzenesulfonyl)aminomethyl]bicyclo[2.2.1]heptan-2-yl]hex-5-enoate], the “(i) Duration of more than 50% inhibit increasing of blood pressure induced STA2 pig” value in data set [2] was more than 300 min. In addition, the “(ii) Effect of increasing of blood pressure in guinea pig” value in data set [3] is 1 mmHg.

`O=C(O)CCC/C=C\[C@H]1C[C@@H]2CC[C@H]1[C@@H](NS(=O)(=O)c1ccc(Br)cc1)C2` (relative stereo) [1 (a), (5Z)-6-[(1R*, 2R*, 4S*, 6S*)-6-(4-bromobenzenesulfonylamino)bicyclo[2.2.2]octan-2-yl]hex-5-enoic acid]: the half-inhibitory concentration (IC50) in data set [1] was 660 nM.

With `O=C(O)CCC/C=C\[C@H]1CCC[C@@H]1CNS(=O)(=O)c1ccc(Br)cc1` (relative stereo) [1 (v), (5Z)-6-[(1R, 2S*)-2-[N-(4-bromobenzenesulfonyl)aminomethyl]cyclopentan-1-yl]hex-5-enoic acid], the IC50 in data set [1] amounted to 220 nM.

Take `Cc1ccc(S(=O)(=O)NC[C@@H]2[C@@H]3CC[C@@H](C3)[C@H]2/C=C\CCCC(=O)O)cc1` [1 (x), (5Z)-6-[(1S, 2S, 3R, 4R)-3-[N-tosyl-aminomethyl]bicyclo[2.2.1]heptan-2-yl]hex-5-enoic acid]: the IC50 in data set [1] is 50 nM.

`Cc1ccc(S(=O)(=O)N[C@H]2[C@H]3CC[C@H](C3)[C@@H]2C/C=C\CCCC(=O)NC(CCC(=O)O)C(=O)O)cc1` (stereo partly drawn) [7 (c), amide of (5Z)-7-[(1R, 2S, 3S, 4S)-3-tosylaminobicyclo[2.2.1]heptan-2-yl]hept-5-enoic acidand glutamic acid]: the “(i) Duration of more than 50% inhibit increasing of blood pressure induced STA2 pig” value in data set [2] was more than 290 min. Also, the “(ii) Effect of increasing of blood pressure in guinea pig” value in data set [3] is reported as 7 mmHg.

As to `CC(C)[C@@H]1CC[C@@H](C)C[C@H]1OC(=O)CCC/C=C\[C@@H]1[C@H]2CC[C@H](C2)[C@H]1CNS(=O)(=O)c1ccc(Br)cc1` [5 (h), menthyl(5Z)-6-[(1S, 2S, 3R, 4R)-3-[N-(4-bromobenzenesulfonyl)aminomethyl]bicyclo[2.2.1]heptan-2-yl]hex-5-enoate], the “(i) Duration of more than 50% inhibit increasing of blood pressure induced STA2 pig” value in data set [2] is given as more than 300 min. Besides, the “(ii) Effect of increasing of blood pressure in guinea pig” value in data set [3] turned out to be 1 mmHg.

Consider `NC(=O)CCC/C=C\[C@@H]1[C@H]2CC[C@H](C2)[C@H]1CNS(=O)(=O)c1ccc(Br)cc1` [6 (d), (5Z)-6-[(1S, 2S, 3R, 4R)-3[N-(4-bromobenzenesulfonyl)aminomethyl]bicyclo[2.2.1]heptan-2-yl]hex-5-enamide], for which the “(i) Duration of more than 50% inhibit increasing of blood pressure induced STA2 pig” value in data set [2] is given as more than 240 min. For the same compound, the “(ii) Effect of increasing of blood pressure in guinea pig” value in data set [3] was determined as 6 mmHg.
